Columns and labels:
[1] = Anionic compatibility test (titration of 10% sodium lauryl sulfate with 10% solids quat solution); assay type: physicochemical; conditions: 10% solids solution added to 100 ml of 10% sodium lauryl sulfate; for number of ml of solution A at the first point haze or precipitate was noted (end point): test stopped at 100 ml (fully compatible)
Method: The compounds evaluated were diluted to 10% solids with DI water before evaluation.
A solution of 10% b weight sodium lauryl sulfate was prepared. The sodium lauryl sulfate was obtained from Colonial Chemical in South Pittsburgh Tennessee.
Anionic Compatibility Test
100 ml of solution B was added to a 400 ml beaker. Solution A was slowly added until either a precipitate or haziness was noted. The number of ml of solution was recorded at the first point the haze of precipitate was noted. That point was noted as the end point. The higher the volume used to the end point the better the compatibility. The test is stopped at 100 ml at which point the product is considered fully compatible.

[2] = test system: hair; experiment: Half head conditioning study in commercial baby shampoo; assay type: in vivo; parameters: key: 1: no conditioning; 2: minimal conditioning; 3: measurable conditioning; 4: good conditioning; 5: excellent conditioning; conditions: 0.5% active by weight in commercial baby shampoo, 10 people, average rounded to nearest whole number
Method: The baby shampoo compounds were evaluated on 10 people with half head studies. The values reported were the average rounded to the nearest whole number. […] The scale used to evaluate was: [table]

anionic compatibility rating [1]	number of ml of solution A at the first point haze or precipitate was noted (end point) [1] [mL]	Molecule	Conditioning Value [2]
Very Incompatible	1.0	CCCCCCCCCCCCCCCCCC[N+](C)(C)Cc1ccccc1.[Cl-] [Stearyl dimethyl denzalkonium chloride, reference compound]	–
mildly compatible	20.0	CCCCCCCCCCCCCCCCCC(=O)NCCCN(C)C.Cl [Stearylamidopropyl dimethyl ammonium chloride, reference compound]	1
Fully	100.0	Dimer glyceryl quat [Example 3]	4
Compatible	58.9	Dimer tri-methyl quat [Example 7]	4
–	–	Hydrogenated dimer benzyl quat [Example 6]	5
Fully	100.0	Hydrogenated dimer glyceryl quat [Example 4]	4
Compatible	59.6	Hydrogenated dimer tri-methyl [Example 8]	4

Molecule	anionic compatibility rating [1]	number of ml of solution A at the first point haze or precipitate was noted (end point) [1] [mL]	Conditioning Value [2]
Cetyl trimethyl benzyl ammonium chloride [reference compound]	Very Incompatible	0.5	–
Dimer benzyl quat [Example 5]	Very	88.2	5
